The subject of test [1] is 5-HT1A receptor. The conditions noted are these: background literature; cited from earlier work.
Test [2] deals with T1, 5-HT1A serotonin receptor subtype (Rattus norvegicus, UniProt P19327).
T1 construct: from tissue
T1 sequence (P19327 1-422): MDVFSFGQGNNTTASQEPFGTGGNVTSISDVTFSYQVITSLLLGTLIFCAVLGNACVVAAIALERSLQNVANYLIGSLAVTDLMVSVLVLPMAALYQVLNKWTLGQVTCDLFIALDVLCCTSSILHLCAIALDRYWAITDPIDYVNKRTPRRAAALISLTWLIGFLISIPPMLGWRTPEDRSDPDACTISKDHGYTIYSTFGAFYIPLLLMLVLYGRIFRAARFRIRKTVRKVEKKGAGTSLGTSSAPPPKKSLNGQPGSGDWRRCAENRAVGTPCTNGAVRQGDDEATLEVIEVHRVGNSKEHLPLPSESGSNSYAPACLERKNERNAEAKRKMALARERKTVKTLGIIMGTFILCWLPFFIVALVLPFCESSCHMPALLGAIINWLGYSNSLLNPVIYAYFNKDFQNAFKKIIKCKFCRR
The experiment in a line: 5-HT1A receptor binding, displacement of 3H-8-OH DPAT (procedure of Hall et al.). To be noted: for inhibition at 0.1 µM: read-out: Affinity for 5-HT1A Receptor Sites, % Inhibition at 100 nM; for Ki: Ki calculated from IC50 values, read-out: Affinity for 5-HT1A Receptor Sites, Ki.
Text: The serotoninergic properties of the compounds of this invention were established by the procedure of Hall et al., J. Neurochem.

Test [3] has as its target T2, D2 receptor (Rattus norvegicus, UniProt P61169).
T2 construct: from tissue
Put plainly: D2 receptor affinity, reduction of 3H-spiroperidol binding. The conditions noted are these: read-out: Affinity for D2 Receptor Sites, % Inhibition at 1 μM. The procedure: The percentage reduction of ^3 H-spiroperidol binding at 1 μM concentration of test compound is reported, infra.

The conditions of test [4]: background, U.S. Pat. No. 4,818,756; cited from earlier work.
Setting [5] is: 100 nM test compound, 3H-8-OH DPAT.
Where [6] appears, read: 1 μM test compound, 3H-spiroperidol.

The values that follow come from US5021569A, “4-azatricyclo[4.3.1.1(3,8)]undecylarylpiperazines with anxiolytic activity” (priority 1990, dated 1991).

Structures can show the parent of a compound that is named as a salt. Where two headings read alike, the source gives them in different places.

T2 sequence (P61169 whole entry): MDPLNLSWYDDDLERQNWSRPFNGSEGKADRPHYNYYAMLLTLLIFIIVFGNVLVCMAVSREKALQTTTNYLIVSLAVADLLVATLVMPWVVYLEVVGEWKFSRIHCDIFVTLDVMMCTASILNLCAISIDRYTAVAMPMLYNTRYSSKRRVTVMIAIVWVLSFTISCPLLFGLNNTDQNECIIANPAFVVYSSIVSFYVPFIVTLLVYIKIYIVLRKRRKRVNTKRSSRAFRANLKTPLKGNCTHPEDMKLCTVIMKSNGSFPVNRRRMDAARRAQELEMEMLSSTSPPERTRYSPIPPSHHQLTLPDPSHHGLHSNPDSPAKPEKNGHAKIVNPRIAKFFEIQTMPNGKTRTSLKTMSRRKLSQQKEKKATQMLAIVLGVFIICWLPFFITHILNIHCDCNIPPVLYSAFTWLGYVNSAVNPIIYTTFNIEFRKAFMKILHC

For `O=C1CC2(CCCC2)CC(=O)N1CCCCN1CCN(c2ncccn2)CC1` [Buspirone, 8-[4-[-4-(2-pyrimidinyl)-1-piperazinyl]butyl]-8-azaspiro[4.5]decane-7,9-dione], the “binding at the 5-HT1A site (in words)” value in test [1] was “demonstrate binding at the 5-HT1A site”. For `O=C(CCN1CCN(c2cccc(Cl)c2)CC1)N1CC2CC3CC(C2)CC1C3` [Example 1, 1-(4-Azatricyclo[4.3.1.1(3,8)]undec-4-yl)-3-[4-(3-chlorophenyl)-1-piperazinyl]-1-propanone], in test [2] (setting [5]), the inhibition at 0.1 µM stood at 78%. Further, in test [2] (3H-8-OH DPAT), the Ki is 30 nM. For the same compound, the inhibition at 1 µM in test [3] (setting [6]) was determined as 42%. Turning to `Clc1cccc(N2CCN(CCCN3CC4CC5CC(C4)CC3C5)CC2)c1` [Example 2, 4-[3-[4-(3-Chlorophenyl)-1-piperazinyl]propyl]-4-azatricyclo[4.3.1.1(3,8)]undecane Dihydrochloride One Third Hydrate], the inhibition at 0.1 µM in test [2] (setting [5]) came to 47%. As to `COc1ccccc1N1CCN(CCC(=O)N2CC3CC4CC(C3)CC2C4)CC1` [Example 3, 1-(4-Azatricyclo[4.3.1.1(3,8)]undec-4-yl)-3-[4-(2-methoxyphenyl)-1-piperazinyl]-1-propanone Dihydrochloride Hydrate], the inhibition at 0.1 µM in test [2] came out at 92%. In addition, the inhibition at 1 µM in test [3] stood at 71%. Consider `COc1ccccc1N1CCN(CCCN2CC3CC4CC(C3)CC2C4)CC1` [Example 4, 4-[3-[4-(2-Methoxyphenyl)-1-piperazinyl]propyl]-4-azatricyclo[4.3.1.1(3,8)]undecane Trihydrochloride One Quarter Hydrate], for which the inhibition at 0.1 µM in test [2] (setting [5]) was 72%. The inhibition constant (Ki) in test [2] (3H-8-OH DPAT) was 33 nM. For the same compound, the inhibition at 1 µM in test [3] (setting [6]) amounted to 14%. As to `O=C(CCN1CCN(c2ncccn2)CC1)N1CC2CC3CC(C2)CC1C3` [Example 5, 1-(4-Azatricyclo[4.3.1.1(3,8)]undec-4-yl)-3-[4-(2-pyrimidinyl)-1-piperazinyl]-1-propanone], in test [2] (setting [5]), the inhibition at 0.1 µM is 46%. In the case of `O=C1c2ccccc2S(=O)(=O)N1CCCCN1CCN(c2ncccn2)CC1` [TVX Q 7821, 2-[4-[4-(2-pyrimidinyl)-1-piperazinyl]buyl]-1,2-benzisothiazol-3-(2H)one-1,1-dioxide hydrochloride], in test [4], the “antidepressant activity (in words)” value was “found to possess antidepressant activity”. The “binding at the 5-HT1A site (in words)” value in test [1] is listed as “demonstrate binding at the 5-HT1A site”.

Regarding `CCCC(C)C1(CC)C(=O)NC(=O)NC1=O` (centres unmarked) [pentobarbital], the “binding at the 5-HT1A site (in words)” value in test [1] is given as “do not act via the 5-HT1A receptor”.

In general, inhibition refers to the relative decrease from the control value, in per cent. What is called Ki is a measure of affinity in units of concentration, obtained from inhibition or displacement.
